Experimental data from patent US7026349B2, “Sulfonamides” (SmithKline Beecham Corporation, priority 2001, dated 2006).

Target: T1, human and rat GPR-14 (UniProt Q9UKP6)
T1 sequence (Q9UKP6 1-389): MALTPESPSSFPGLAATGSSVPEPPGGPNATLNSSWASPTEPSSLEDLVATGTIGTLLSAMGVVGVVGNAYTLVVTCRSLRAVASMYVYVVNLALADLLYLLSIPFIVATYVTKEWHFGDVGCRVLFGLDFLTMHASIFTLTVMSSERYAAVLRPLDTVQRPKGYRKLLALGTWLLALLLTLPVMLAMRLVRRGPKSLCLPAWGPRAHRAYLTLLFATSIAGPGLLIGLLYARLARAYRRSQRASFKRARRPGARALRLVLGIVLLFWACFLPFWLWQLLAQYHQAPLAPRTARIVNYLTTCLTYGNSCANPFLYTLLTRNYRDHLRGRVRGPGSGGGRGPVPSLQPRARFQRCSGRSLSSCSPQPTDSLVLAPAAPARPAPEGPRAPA
Assay: Radioligand binding ([125I] h-U-II) to HEK-293 cell membranes containing cloned GPR-14
Conditions: stable cloned GPR-14, 200 pM [125I] h-U-II, species of receptor not given

COc1cc(Br)c(S(=O)(=O)Nc2ccc(Cl)c(O[C@H]3CCN(C)C3)c2)cc1OC [Example 10, 2-Bromo-N-[4-chloro-3-((S)-1-methyl-pyrrolidin-3-yloxy)-phenyl]-4,5-dimethoxy-benzenesulfonamide]
Ki: 270 nM
